Several values for one entry are separate records, joined by “and”; a condition that tells them apart may be missing. Equal entries are not always repeated.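 48-hour exposure; five concentrations; linearly interpolated endpoints. GI50 = concentration required for 50% inhibition of growth. TGI marks complete inhibition of growth.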
Legend:
Assay in all cases: NCI tumour cell line growth inhibition, 48 h
COLO 205 colon = test system: COLO 205 colon
IGROV1 ovarian = test system: IGROV1 ovarian
K-562 leukemia = test system: K-562 leukemia
KM12 colon = test system: KM12 colon
LOX IMVI melanoma = test system: LOX IMVI melanoma
MCF7 breast = test system: MCF7 breast
RPMI-8226 leukemia = test system: RPMI-8226 leukemia
SK-MEL-2 melanoma = test system: SK-MEL-2 melanoma
SNB-19 CNS = test system: SNB-19 CNS
U251 CNS = test system: U251 CNS
HL-60(TB) leukemia = test system: HL-60(TB) leukemia
SF-539 CNS = test system: SF-539 CNS

Compound | TGI (COLO 205 colon) | TGI (IGROV1 ovarian) [µM] | TGI (K-562 leukemia) [µM] | TGI (KM12 colon) | TGI (LOX IMVI melanoma) | TGI (MCF7 breast) [µM] | TGI (RPMI-8226 leukemia) [µM] | TGI (SK-MEL-2 melanoma) | TGI (SNB-19 CNS) [µM] | TGI (U251 CNS) [µM] | TGI (HL-60(TB) leukemia) [µM] | TGI (SF-539 CNS) [µM] | GI50 (KM12 colon) [µM] | GI50 (SF-539 CNS) [µM] | GI50 (SK-MEL-2 melanoma) [µM]
CC(=O)OC1(C)CC(C)C(=O)C(C(O)CC2CC(=O)NC(=O)C2)C1 (stereo not given) | 0.18 µM and 0.0404 µM | 0.0489 | 0.0322 | 0.164 µM and 0.327 µM | 0.296 µM and 0.103 µM | 0.0813 | 0.0162 | 0.806 µM and 0.438 µM | 0.598 | 21.3 |  |  |  |  | 
COc1cccc2c1C(=O)c1c(O)c3c(c(O)c1C2=O)CC(O)(C(C)=O)CC3OC1OC(COC(C)=O)C(OC(C)=O)C(OC(C)=O)C1OC(C)=O (stereo not given) | > 100 µM | 47.5 | > 100 | > 100 µM | > 100 µM | > 100 |  | > 100 µM | 42.1 | 27.5 | > 100 | 39.7 |  |  | 
C[N+]1(C)C/C(=C\C=C\c2ccccc2)C(=O)/C(=C/C=C/c2ccccc2)C1 | 11.8 µM | 35.8 | 36 | 10.3 µM | 52.1 µM | 38.4 | 10.9 | 64.2 µM | 27.5 | 19.2 | 4.13 | 33.9 |  |  | 
CC(C)(C)c1cc(OCc2n[nH]c(=S)n2N)c(Cl)cc1OCc1n[nH]c(=S)n1N | > 100 µM | > 100 | > 100 | > 100 µM | > 100 µM | > 100 | > 100 | 43 µM | > 100 | > 100 | 58.5 | > 100 |  |  | 
COc1cc2c(cc1OC)-c1cc3cc(OC)c(OC)cc3c(C)[n+]1CC2 (tested in a mixture with another compound) | > 100 µM | > 100 |  | > 100 µM | > 100 µM | > 100 | > 100 | > 100 µM | > 100 | > 100 | > 100 | > 100 |  |  | 
CCn1c(=O)c2c3ccc(O)cc3[nH]c2c2ccc(O)cc21 | > 100 µM | > 100 | > 100 | > 100 µM |  | > 100 |  |  | > 100 | > 100 |  | > 100 |  |  | 
O=C(N/N=C/c1cc(Cl)cc(Cl)c1[O-])c1ccccc1O.O=C(N/N=C/c1cc(Cl)cc(Cl)c1[O-])c1ccccc1O.[Fe+2] |  | 56.5 | > 100 | 41.8 µM | 86.5 µM |  |  | 35.5 µM | 46.2 | 22.6 | 16.3 | 28 | 15.5 | 10.4 | 14.9
CCN(CC)CCCNC(=O)c1ccccc1Nc1c(Cl)cccc1Cl | 28 µM | 34 | 23 |  | 22.3 µM |  | 20.5 |  | 29.1 |  | 12.5 | 23.7 |  |  | 
O=[N+]([O-])c1ccc(C2NC(=S)NC3c4cc([N+](=O)[O-])ccc4CCCC23)cc1 (stereo not given) | > 100 µM | > 100 | > 100 | > 100 µM | > 100 µM | > 100 | > 100 | > 100 µM | > 100 | > 100 | > 100 | > 100 |  |  | 
Nc1n[nH]c(N)n1 | 9990 µM | > 7740 | > 10000 | > 10000 µM | 7400 µM | > 10000 | > 10000 | > 10000 µM | > 10000 | > 10000 | 7060 | 8860 |  |  | 
O=c1[nH]c(Br)nc2n[nH]nc12 | > 100 µM | > 100 | > 100 | > 100 µM | > 100 µM | > 100 | > 100 | > 100 µM | > 100 | > 100 | > 100 | 94.9 |  |  | 

Reference: PubChem BioAssay (NCI)
